Like-named read-outs stand apart in the source and are kept apart here.
What was measured:
[1] = system: Naegleria fowleri (ATCC 30215) trophozoites; assay: microbe, parasite or virus in culture
Method: Trophozoites were routinely grown axenically at 34°C, 5% CO2, in Nelson’s complete medium (NCM) in non-vented 75 cm^2 tissue culture flasks (Olympus), until the cells were 80–90% confluent. For sub-culturing, cells were placed on ice to detach the cells from the culture flasks. […] Complete NCM media is prepared by the addition of 10% fetal bovine serum (FBS) and 100 U/mL penicillin, and 100 μg/mL streptomycin antibiotics.
Trophozoites were routinely cultured as described above and only logarithmic trophozoites were used.
All assays were incubated at each of the parasites’ representative growth temperatures, described above, for 72 h. At the 72-h time point, 25 μL of CellTiter-Glo 2.0 reagent was added to all wells of the 96-well plates by hand. The plates were protected from light and contents were mixed using an orbital shaker at 300 rpm at room temperature for 2 min to induce cell lysis. After shaking, the plates were equilibrated at room temperature for 10 min to stabilize the luminescent signal. The ATP luminescent signal (relative light units; RLUs) were measured […] with a SpectraMax I3X plate reader (Molecular Devices, Sunnyvale, CA, United States). […] Values reported are from a minimum of three biological replicates with standard deviation.

L6 cells = assay: Rat skeletal muscle cell line (L6) cytotoxicity assay (resazurin); settings: Table S2; in µM
Method: One hundred microliters (100 μL) per well of culture medium containing the compounds and controls were added to L6 cells previously cultured (4 × 10^3 L6 cells per well). After 72 h at 37°C the medium was exchanged, and the viable cell number was determined by resazurin (Sigma–Aldrich) reduction. 20 μl of resazurin (1.1 mg/ml) was added to each well and incubated in the dark for 2 h at 37°C.

[2] = system: Balamuthia mandrillaris (CDC:V039; ATCC 50209) trophozoites; assay: CellTiter-Glo 2.0 trophocidal assay, B. mandrillaris; type: cell-based; settings: Balamuthia mandrillaris, ATCC50209, 72 h, read-out: Balamuthia mandrillaris EC50 ± SD
Source text: For sub-culturing, 0.25% Trypsin–EDTA (Gibco) cell detachment reagent was used to detach the cells from the culture flasks.

MRC5 cells = assay: Human fetal lung fibroblast (MRC5) cell cytotoxicity assay (resazurin); settings: Table S2
Method: (§1) Intermediate plates were made as described, adding 95 μL of DMEM complete media to 5 μL of compound per well setting a 5% DMSO amount. Log-phase MRC5 cells were removed from a T-75 TC flask using TrypLE® Express (Thermo®) and dispersed by gentle pipetting. Cell density was adjusted to working concentration in prewarmed DMEM medium: 25,000 cells in 90 μL of culture were plated in 96-well transparent Nunclon plates and allowed to settle for 24 h at 37°C and 5% CO2. […] Plates were incubated for 48 h at 37°C and 5% CO2. At 4 h prior to fluorescence measurement, 20 μL of 500 μM resazurin solution was added.
(§2) A four-parameter equation was used to fit the dose–response curves and determination of EC50 by SigmaPlot ® 13.0 software. Assays were performed in duplicate at least twice for positive compounds, to achieve a minimal […] per dose response.

THP-1 = assay: Cytotoxicity assay in THP-1 (MTT); type: cell-based; settings: Table S2, 72 h, maximal concentration 50 μM
Method: Cytotoxicity assay in TH P-1. Cellular toxicity of all compounds was determined using the colorimetric MTT-based assay after incubation at 37 °C for 72 h in the presence of increasing concentrations of compounds (final maximal concentration was 50 μM in 0.5% DMSO per well) [ 1] . The results are expressed […]
cells. Assays were performed in duplicate at least twice to achieve a minimal n=3 per dose response. […]
Cytotoxicity assay in THP-1. Cellular toxicity of all compounds was determined using the colorimetric MTT-based assay after incubation at 37 °C for 72 h in the presence of increasing concentrations of compounds (final maximal concentration was 50 μM in 0.5% DMSO per well). […] Assays were performed in duplicate at least twice to achieve a minimal n=3 per dose response.

[3] = system: Acanthamoeba castellanii T4 isolate (ATCC 50370) trophozoites; assay: CellTiter-Glo 2.0 trophocidal assay, A. castellanii; type: cell-based; settings: read-out: Acanthamoeba castellanii EC50 ± SD
Source text: This isolate was purchased from American Type Culture Collection (ATCC). […] For sub-culturing, cells were mechanically harvested to detach the cells from the culture flasks.

[4] = Human fetal lung fibroblast (MRC5) cell cytotoxicity assay (resazurin); settings: human
Method: as §1, §2

[5] = Naegleria fowleri, ATCC30215, 72 h, read-out: Naegleria fowleri EC50 ± SD, logarithmic trophozoites, 72 h, n = 3 (converted)
[6] = logarithmic trophozoites, 72 h, n = 3
[7] = Acanthamoeba castellanii, ATCC50370, 72 h, logarithmic trophozoites, 72 h, n = 3
[8] = read-out: Naegleria fowleri EC50 ± SD, logarithmic trophozoites, 72 h, n = 3
[9] = MRC5 cells (human fetal lung fibroblasts)
[10] = Naegleria fowleri, 72 h, read-out: Naegleria fowleri EC50 ± SD, logarithmic trophozoites, 72 h, n = 3 (converted)
[11] = Acanthamoeba castellanii, ATCC50370, 72 h

EC50 [1, 5] [µM] | Structure (SMILES) | CC50 at 48 h [4, 9] [µM] | EC50 [1, 10] [µM] | EC50 [2] [µM] | other results
3.3 ± 1 | O=C1OCc2ccc(Nc3nccc(Nc4cccc5c4C(=O)NC5)n3)cc21 [Compound S20, 7-((2-((3-oxo-1,3-dihydroisobenzofuran-5-yl)amino)pyrimidin-4-yl)amino)isoindolin-1-one] | – | – | – | L6 TC50 ± Standard Deviation (L6 cells): > 50; EC50 [2, 6]: > 20 µM; MRC5 TC50 ± Standard Deviation (MRC5 cells; in µM): > 50; THP-1 TC50 ± Standard Deviation (THP-1): > 50; EC50 [3, 7]: > 20 µM
– | COCc1nn2ncccc2c1-c1ccnc(Nc2cccc(C#N)c2)n1 [Compound 2l] | > 50 | – | – | EC50 [1, 8]: ≤ 14 µM; EC50 ([1]; read-out: Naegleria fowleri EC50 ± SD, logarithmic trophozoites, 72 h, n = 3, listed as 2 l): 1.1 ± 0.16 µM
– | CC(C)c1nn2ncccc2c1-c1ccnc(Nc2cccc(C#N)c2)n1 [Compound 2n] | 33 ± 2 | 1.3 ± 0.33 | – | –
> 20 | O=C(N[C@H](CO)c1ccccc1)c1cc(-c2c[nH]c3ncccc23)[nH]n1 [Compound S12, (S)-N-(2-Hydroxy-1-phenylethyl)-5-(1H-pyrrolo[2,3-b]pyridin-3-yl)-1H-pyrazole-3-carboxamide] | – | – | – | L6 TC50 ± Standard Deviation (L6 cells): > 17; EC50 [2, 6]: > 20 µM; MRC5 TC50 ± Standard Deviation (MRC5 cells; in µM): 42 ± 7.7; THP-1 TC50 ± Standard Deviation (THP-1): 42 ± 11; EC50 [3, 7]: > 20 µM
– | COc1cccc(Nc2nccc(-c3cnn4ccccc34)n2)c1 [Compound 2h] | > 50 | – | 3.3 ± 0.97 | –
– | CC(O)c1nn2ncccc2c1-c1ccnc(Nc2cccc(C#N)c2)n1 (stereo not shown) [Compound 2m] | > 50 | 17 ± 0.76 | – | –
– | COc1cccc(Nc2nccc(-c3cnn4nc(N5CCOCC5)ccc34)n2)c1 [Compound 2j] | > 50 | – | 4.9 ± 1.6 | –
– | c1ccc(Nc2nccc(-c3cnn4ccccc34)n2)cc1 [Compound 2a] | > 50 | 0.94 ± 0.17 | 4.2 ± 0.6 | EC50 [3, 11]: 13 ± 6.9 µM
– | OC1CCC(Nc2nccc(-c3cnn4nc(N5CCOCC5)ccc34)n2)CC1 (stereo not shown) [Compound 2k] | > 50 | ≤ 14 | > 20 | EC50 [1, 8]: 7.5 ± 2.5 µM
> 20 | COc1ccn2c(NC(=O)c3ccc(F)cn3)c(-c3ccccn3)nc2c1 [Compound 3k, 5-Fluoro-N-[7-methoxy-2-(pyridin-2-yl)imidazo[1,2-a]pyridin-3-yl]pyridine-2-carboxamide] | – | – | – | MRC5 TC50 ± Standard Deviation (MRC5 cells): 64 µM
– | Fc1ccc(Nc2nc(NCC(F)(F)F)c3nc[nH]c3n2)cc1 [Compound S23] | – | > 20 | – | L6 TC50 ± Standard Deviation (L6 cells): > 50; EC50 [2, 6]: > 20 µM; MRC5 TC50 ± Standard Deviation (MRC5 cells; in µM): > 50; THP-1 TC50 ± Standard Deviation (THP-1): > 50; EC50 [3, 7]: > 20 µM
– | N#Cc1cccc(Nc2cccc(-c3cnn4ncccc34)c2)c1 [Compound 2g] | 19 ± 1 | – | > 20 | EC50 [3, 11]: > 20 µM
– | COc1ccc2c(-c3ccnc(NC4CCC(O)CC4)n3)cnn2n1 (stereo not shown) [Compound 2s] | > 50 | – | 11 ± 4.2 | –
– | COc1ccc2c(-c3ccnc(NC4CCC(O)CC4)n3)c(C3CC3)nn2n1 (stereo not shown) [Compound 2u] | > 50 | – | 9.4 ± 3.4 | –
– | CN(C)S(=O)(=O)c1ccc(N/N=C2\C(=O)Nc3ccccc32)cc1 [Compound S30] | – | > 20 | – | EC50 [2, 6]: > 20 µM; MRC5 TC50 ± Standard Deviation (MRC5 cells; in µM): > 50; THP-1 TC50 ± Standard Deviation (THP-1): > 50; EC50 [3, 7]: > 20 µM
13 ± 6.7 | COc1ccn2c(Nc3ccccc3F)c(-c3cnn(C)c3)nc2c1 [Compound 3b, N-(2-Fluorophenyl)-7-methoxy-2-(1-methyl-1H-pyrazol-4-yl)imidazo[1,2-a]pyridin-3-amine] | – | – | – | MRC5 TC50 ± Standard Deviation (MRC5 cells): 64 µM

EC50 [1, 5] [µM] | Structure (SMILES) | CC50 at 48 h [4, 9] [µM] | EC50 [1, 10] [µM] | EC50 [2] [µM] | other results
– | COc1ccc(-c2nn3ncccc3c2-c2ccnc(Nc3ccccc3)n2)cc1 [Compound 2i] | > 50 | 17 ± 3.5 | – | –
> 20 | COc1ccn2c(Nc3ccccc3F)c(-c3ncccn3)nc2c1 [Compound 3i, N-(2-Fluorophenyl)-7-methoxy-2-(pyrimidin-2-yl)imidazo[1,2-a]pyridin-3-amine] | – | – | – | MRC5 TC50 ± Standard Deviation (MRC5 cells): 49 µM
> 20 | COc1ccn2c(Nc3ccccc3F)c(-c3ccncn3)nc2c1 [Compound 3j] | – | – | – | MRC5 TC50 ± Standard Deviation (MRC5 cells): 46 µM
– | c1cncc(Nc2nccc(-c3c(C4CC4)nn4ncccc34)n2)c1 [Compound 2r] | > 50 | 16 ± 3.7 | 13 ± 7.5 | –
– | Cc1cc(-c2cnn3ncccc23)nc(Nc2cccc(C#N)c2)n1 [Compound 2e] | > 50 | – | – | EC50 [3, 11]: > 20 µM
– | c1cnn2ncc(-c3ccnc(NC4CCCCC4)n3)c2c1 [Compound 2p] | > 50 | 1.4 ± 0.76 | 7.5 ± 3.1 | –
12 ± 7.8 | Fc1ccc(Nc2nccc(-c3c(C4CC4)nn4ncccc34)n2)cc1F [Compound 2q] | – | – | – | MRC5 TC50 ± Standard Deviation (MRC5 cells; in µM): > 50; CC50 at 48 h [4]: > 50 µM
– | N#Cc1cccc(Nc2nccc(-c3c(C4CC4)nn4ncccc34)n2)c1 [Compound 2o] | > 50 | 9.6 ± 6.6 | – | –
> 20 | Fc1ccn2c(NC3CC3)c(-c3ccccn3)nc2c1 [Compound 3d, N-Cyclopropyl-7-fluoro-2-(pyridin-2-yl)imidazo[1,2-a]pyridin-3-amine] | – | – | – | MRC5 TC50 ± Standard Deviation (MRC5 cells): 64 µM; EC50 [3, 7]: > 20 µM
> 20 | COc1ccn2c(NC(=O)c3cccc(F)c3)c(-c3ccccn3)nc2c1 [Compound 3l, 3-Fluoro-N-[7-methoxy-2-(pyridin-2-yl)imidazo[1,2-a]pyridin-3-yl]benzamide] | – | – | – | MRC5 TC50 ± Standard Deviation (MRC5 cells): 59 µM
– | N#Cc1cccc(Nc2cccc(-c3cnn4ncccc34)n2)c1 [Compound 2f] | > 50 | – | > 20 | EC50 [3, 11]: > 20 µM
> 20 | COc1ccn2c(Nc3ccccc3F)c(-c3cccc(C)n3)nc2c1 [Compound 3c, N-(2-Fluorophenyl)-7-methoxy-2-(6-methylpyridin-2-yl)imidazo[1,2-a]pyridin-3-amine] | – | – | – | MRC5 TC50 ± Standard Deviation (MRC5 cells): 64 µM; EC50 [3, 7]: > 20 µM
– | N#Cc1cccc(Nc2nccc(-c3c(C4CC4)nn4nc(N5CCOCC5)ccc34)n2)c1 [Compound 2c] | > 50 | 3.5 ± 0.7 | – | EC50 [3, 11]: 5.9 ± 0.17 µM
15 ± 4.7 | Nc1c(-c2ccccn2)nc2cc(F)ccn12 [Compound 3a, 7-Fluoro-2-(pyridin-2-yl)imidazo[1,2-a]pyridin-3-amine] | – | – | – | MRC5 TC50 ± Standard Deviation (MRC5 cells): 64 µM; EC50 [3, 7]: < 10 µM; EC50 [3, 6]: 6.94 ± 0.11 µM
> 20 | COc1ccn2c(NC(=O)c3ccccc3F)c(-c3ccccn3)nc2c1 [Compound 3h, 2-Fluoro-N-[7-methoxy-2-(pyridin-2-yl)imidazo[1,2-a]pyridin-3-yl]benzamide] | – | – | – | MRC5 TC50 ± Standard Deviation (MRC5 cells): 64 µM
– | c1ccc(Nc2nccc(-c3cnn4ncccc34)n2)nc1 [Compound 2t] | > 50 | – | 10 ± 2.8 | –
